The values that follow come from publication PMC10065799, “High-throughput profiling of sequence recognition by tyrosine kinases and SH2 domains using bacterial peptide display” (eLife, 2023).

Read-outs that look alike come from different tables or passages of the source.

What all share (assay): pTyr-Var library bacterial peptide display kinase screen (enrichment scores)
The target in experiment [1] is T1, c-Abl kinase domain (Mus musculus, UniProt P00520).
T1 sequence (P00520 242-493 limits assumed): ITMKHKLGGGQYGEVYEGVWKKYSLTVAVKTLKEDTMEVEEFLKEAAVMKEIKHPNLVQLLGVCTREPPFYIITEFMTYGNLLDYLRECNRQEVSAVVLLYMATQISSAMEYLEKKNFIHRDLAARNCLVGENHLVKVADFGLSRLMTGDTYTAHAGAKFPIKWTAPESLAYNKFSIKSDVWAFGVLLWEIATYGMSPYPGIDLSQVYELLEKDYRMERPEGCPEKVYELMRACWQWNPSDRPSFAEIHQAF
The experiment is classed as biochemical.

The subject of experiment [2] is Fer kinase domain. The experiment is classed as biochemical, mouse. The conditions noted are these: sheet "Fer".
In experiment [3] the test system is EPHB1 kinase domain. In kind it is biochemical, human. Conditions: for Screen: sheet EPHB1, effect of the variant peptide relative to its reference peptide in the pTyr-Var library screen (enrichment scores); for Screen (variant relative to reference peptide, measured in the pTyr-Var library screen): sheet "EPHB1", variant seq vs reference seq, bacterial peptide display enrichment.

Experiment [4] concerns the target c-Src kinase domain (Homo sapiens, UniProt P12931). The experiment is classed as biochemical.
The mark [5] stands for this setting: fig5-data2, sheet "Abl", Screen for the variant/reference peptide pair, pTyr-Var library.
The mark [6] stands for this setting: variant peptide relative to its reference peptide, pTyr-Var library screen enrichment.
Setting [7] is: sheet "Abl", effect of variant peptide relative to its reference peptide in pTyr-Var library screen (enrichment).
Where [8] appears, read: value of the variant peptide against its reference peptide in the pTyr-Var library screen with Fer.
Setting [9] is: sheet "Src", effect of the variant peptide relative to its reference peptide in the pTyr-Var library screen.
The mark [10] stands for this setting: sheet "Src", variant peptide versus its reference peptide in the pTyr-Var library screen.

Take AATTAYSKPKQ [MAP3K7_Y405_R410Q]: the Screen in experiment [1] (setting [5]) was -0.9283.
Turning to PVGVLYEVKVF [PTS_Y128_K129E_YF], the figures for the Screen in experiment [2] (setting [6]) and in experiment [3] were 1.639 and 0.4109, respectively.
For the sequence VIIVLYFSLWK [SLC6A2_Y249_V245I], the Screen in experiment [1] (setting [7]) was -0.9059.
In experiment [2] (setting [8]), QTEAPYRFIFM [PTPN11_Y511_Q510P_YF] showed a Screen of 2.526.
Consider KVPAIYGVGTR [CPS1_Y162_D165G], for which the Screen in experiment [4] (setting [9]) is on record as 1.669.
Turning to VFGVSYDEFRF [CFTR_Y512_I507V_YF], the Screen in experiment [2] (setting [8]) is given as 0.375; in experiment [4] (setting [9]), 0.2836.
Consider FRQNGYIPGSN [PCDHGB2_Y895_V894G_YF], for which the Screen in experiment [1] (setting [5]) is -0.7593.
ELQGTYTSLQQ [KIF3C_Y574_R571Q]: the Screen in experiment [4] (setting [9]) was found to be 1.278.
IATTIYSGDKI [UGGT2_Y823_A821T]: the Screen in experiment [4] (setting [10]) is on record as -1.846.
In experiment [4] (setting [9]), TDTQLYGRFGS [ITGA2B_Y384_G380D] registered a Screen of -0.04787.
SGEKPYKCSVC [ZNF543_Y283_E287V] yielded a Screen in experiment [1] (setting [7]) of 3.958.
In experiment [1] (setting [7]), LLSVAYKNVVR [YWHAZ_Y48_G53R] showed a Screen of 1.295.
LKRCQYVTKKV [ALDOA_Y204_E207K] displayed a Screen in experiment [3] of -1.465.
Turning to GFFDLYGGEKF [PTPN11_Y66_D61G_YF], the Screen in experiment [4] (setting [10]) is listed as -0.05122.
TVHPGYGFLSE [PCCA_Y143_A138T] had a Screen in experiment [1] (setting [5]) of 1.846.
Turning to KRAAIYNPVIF [RHO_Y301_S297R_YF], the values for the Screen in experiment [2] (setting [6]) and in experiment [4] (setting [10]) were -0.6585 and -1.114, respectively.
Sequence SGSFRYGSSFE [SELE_Y390_C394F] came in with a Screen in experiment [1] (setting [7]) of -0.02524.
In experiment [4] (setting [10]), VVSLFYGTALF [OR10C1_Y251_M246V] displayed a Screen of -0.3109.
In experiment [1] (setting [5]), IGVDSYSVCKR [RPS6KA3_Y433_G431D] had a Screen of 0.006002.
Take KDQGIYEDFVE [MYL6_Y86_T85I_YF]: the Screen was found to be 1.02 in experiment [2] (setting [8]) and 1.232 in experiment [4] (setting [10]).
In turn, HLLRIYFDITD [MMP27_Y307_W304L_YF] returned a Screen in experiment [3] of 0.4409.
On to DPLLTYQFPPK [LMNA_Y481_R482Q], for which the Screen in experiment [4] (setting [9]) stood at 1.304.
In the case of RILENYGADID [DNAH5_Y596_L591R], the Screen in experiment [1] (setting [5]) is -0.1652.
Sequence HGAKVYIDPFT [EPHB4_Y590_T587A] had a Screen in experiment [1] (setting [5]) of 1.249.
The sequence VQVAFYTVMMN [SPATA17_Y84_M86V_YF] gave a Screen in experiment [2] (setting [6]) of -1.379.
Consider PKDSAYVTWEP [TTN_Y20731_S20726P], for which the figures for the Screen in experiment [2] (setting [6]) and in experiment [4] (setting [10]) were 0.6125 and 0.3327, respectively.
In experiment [4] (setting [10]), GSSKIYFLHAD [TLR5_Y108_P112A] displayed a Screen of -1.042.
Sequence FKEVVYQAMEE [TACC3_Y684_E680K] displayed a Screen in experiment [4] (setting [10]) of -0.2069.
In the case of FSQQTYFPVSN [ABCD1_Y180_R182P_YF], in experiment [4], the Screen amounted to 1.076.
AMGPVYQAAAL [HYOU1_Y421_A419P]: the Screen in experiment [2] (setting [8]) stood at 1.97; in experiment [4] (setting [9]), 0.5389.
AQMAMYFWEMS [TRPM4_Y577_G582S] yielded a Screen in experiment [4] (setting [10]) of -0.06271.
In turn, VKMLPYTEVTR [GDI1_Y93_L92P] had a Screen in experiment [3] of -2.754.
On to QMIETYFDFRV [NSMF_Y506_L511V], for which the figures for the Screen in experiment [3] and in experiment [4] (setting [10]) were -0.6862 and -0.8869, respectively.
RSSGSYGGGGQ [HNRNPA1_Y341_P340S]: the Screen in experiment [3] came to 0.1057.
Take VDEVLYEDSSA [MTHFS_Y197_T202A]: the Screen in experiment [2] (setting [8]) is reported as -0.2341.
For KKHIPYRQHKS [CSNK1G2_Y206_E208Q], the values for the Screen in experiment [2] (setting [8]) and in experiment [3] were 0.3167 and 0.2176, respectively.
For the sequence LQKNIYSEELR [LMNA_Y211_F206L], the Screen is listed as 0.6923 in experiment [3] and -1.475 in experiment [4] (setting [9]).
In turn, NAGAFYVLSTL [FLVCR2_Y325_A326V] yielded a Screen in experiment [2] (setting [8]) of -2.63.
Turning to SSSNPYSTVTV [ACTN2_Y599_M604V], the Screen is on record as -0.1641 in experiment [2] (setting [8]) and -0.5875 in experiment [4] (setting [9]).
In experiment [4] (setting [10]), HITQVYGFFDE [PPP2CA_Y127_Q122H_YF] returned a Screen of 0.5425.
Sequence LLASGYDSPIN [ABLIM1_Y638_R637G] registered a Screen in experiment [3] of -0.7648.
Take AKAFIYASHIV [ZNF573_Y229_G224A]: the Screen in experiment [2] (setting [6]) is listed as 0.4356; in experiment [4] (sheet "Src", effect of the variant peptide against its reference peptide, seen in the pTyr-Var library screen), 0.3183.
On to ETEMLYGSARR [PRC1_Y464_P468R], for which the Screen was -2.34 in experiment [2] (setting [8]) and -0.8951 in experiment [4] (setting [10]).
With AGIVVYNIIGW [MYH7_Y588_D587V], in experiment [4] (setting [10]), the Screen is 2.236.
CSRCFYQLTKL [AR_Y858_R856C]: in experiment [2] (setting [8]), the Screen is recorded as 1.959.
In turn, QDRTFYERVRT [SPEN_Y633_S635R_YF] returned a Screen in experiment [2] (setting [6]) of -1.346.
With HLGNQYVNVMN [SLC3A1_Y461_R456H], the “Screen (variant relative to reference peptide, measured in the pTyr-Var library screen)” value in experiment [3] is -0.5071.
Consider GENTVYAQVFN [LY9_Y603_M602V], for which the Screen was determined as 0.3094 in experiment [2] (setting [8]), 0.06415 in experiment [3] and 1.086 in experiment [4] (setting [9]).
Regarding PAIFTYDEFKK [COL8A2_Y648_T645I_YF], the values for the Screen in experiment [2] (setting [8]) and in experiment [4] (setting [9]) were -2.501 and 0.8342, respectively.
For the sequence RDLHTYIMPAH [PNMT_Y256_R254H], the Screen in experiment [3] is listed as -2.793.
With FQKNVYSEELR [LMNA_Y211_I210V], in experiment [4] (setting [9]), the Screen is on record as -1.452.
As for TRDVNYGWIIH [MT-CYB_Y75_R80H], the Screen in experiment [2] (setting [8]) was 3.39.
As for GFEEAYSVSKK [PAFAH1B1_Y28_F31S_YF], the Screen in experiment [4] (setting [10]) is -2.622.
LREKVYVSLEA [RXRA_Y397_A398V] displayed a Screen in experiment [4] (setting [10]) of -2.342.
In experiment [4] (setting [9]), ACLSLYGGFVE [MVD_Y164_R161L] showed a Screen of -0.5782.
As for TQPSPYAVFLF [RPGRIP1_Y823_R827L_YF], the Screen in experiment [2] (setting [6]) is -0.3535; in experiment [3], -0.3084; in experiment [4] (setting [10]), -0.4188.
As for MFNPCYGLFEF [NEDD4L_Y680_Y679C_YF], the Screen is -0.1579 in experiment [2] (setting [8]) and -0.1736 in experiment [4] (setting [10]).
Regarding ICGVSYDEFRF [CFTR_Y512_F508C_YF], the Screen in experiment [2] (setting [8]) is listed as -0.3864; in experiment [4] (setting [9]), -0.6525.
In the case of KGSLPYSLILD [PKD1L2_Y406_N407S], the Screen in experiment [4] (setting [10]) is listed as 1.59.
SSFDTYHLSRE [KIR3DL2_Y253_I252T_YF]: the Screen in experiment [4] (setting [9]) is given as -1.121.
In the case of SEKISYVFMKR [SSX7_Y48_L43S_YF], the “Screen (variant relative to reference peptide, measured in the pTyr-Var library screen)” value in experiment [3] was -1.247.
QRRNVYFFSFL [PTEN_Y176_Y174N_YF] returned a Screen in experiment [2] (setting [8]) of -1.418.
Turning to CTHDLYMFMRE [FGFR3_Y724_I726F], the Screen in experiment [3] is 0.1536; in experiment [4] (setting [9]), 0.09652.
In experiment [3], QRASDYFSQQM [GBP6_Y333_A331S_YF] returned a Screen of 1.684.
With FLTQHYDAIPQ [ANG_Y38_K41I], the Screen in experiment [2] (setting [8]) worked out at 3.881.
In the case of PQAVTYAEVKH [LILRB4_Y360_K362E], the Screen in experiment [3] was 2.401; in experiment [4] (setting [9]), 2.83.
For DFPGIYSGFDD [POLR1C_Y33_N32I_YF], the Screen in experiment [4] (setting [10]) was found to be 3.694.
In experiment [2] (setting [8]), SKHHLYSDLQT [PTCHD1_Y84_R82H] registered a Screen of 1.431.
The sequence QAIDEYEKWLE [MAP9_Y603_N601D] yielded a Screen in experiment [3] of -0.2835.
The sequence VVKTVYSLQPS [KNSTRN_Y87_P92S] displayed a Screen in experiment [4] (setting [9]) of -0.2694.
As for TTPFNYSFIFK [RAB14_Y8_A4T_YF], in experiment [3], the Screen came out at 0.03762.
